According to patent US20180188338A1, “Nuclear Spin Polarization Enhancing Method Through Dynamic Nuclear Polarization by Using Soluble Pentacene” (RIKEN, priority 2015, published 2018):

Test: confirmation of dissolution of the pentacene derivative in the solvent
Type: physicochemical
Experimental: Herein, all samples are compositions containing no test compound and including the pentacene derivative and/or the salt thereof and the solvent.
6,13-Diphenylpentacene (0.4 mg, produced by Sigma-Aldrich Co., Ltd.) represented by the following formula was prepared as the pentacene derivative represented by formula (A), and dissolved in a mixed liquid of water and deuterated ethanol (2 mL, pure water:ethanol=1:9% by mass) as the solvent, thereby preparing a sample.
6,13-Diphenylpentacene (0.5 mg) represented by the above formula, as the pentacene derivative represented by formula (A), was dissolved in a mixed liquid of benzene and polystyrene (1 mL, benzene:polystyrene=5:5% by mass) as the solvent, thereby preparing a sample.
(§1) 6,13-Diphenylpentacene (0.5 mg) represented by the above formula, as the pentacene derivative represented by formula (A), was dissolved in a mixed liquid of benzene and deuterated toluene (1 mL, benzene:deuterated toluene=1:9% by mass) as the solvent, thereby preparing a sample.
as §1, with “6,13-Dibiphenylpentacene (0.4 mg, produced by Luminescence Technology Crop.)” for “6,13-Diphenylpentacene (0.5 mg)”, “following” for “above”, “(2” for “(1”
(§2) 6,13-Bis[(triethylsilyl)ethynyl]pentacene (0.4 mg, produced by Sigma-Aldrich Co., Ltd.) represented by the following formula, as the pentacene derivative represented by formula (A), was dissolved in a mixed liquid of benzene and polystyrene (2 mL, benzene:polystyrene=5:5% by mass) as the solvent, thereby preparing a sample.
as §2, with “6,13-Bis[(triisopropylsilyl)ethynyl]pentacene” for “6,13-Bis[(triethylsilyl)ethynyl]pentacene”, “Tokyo Chemical Industry” for “Sigma-Aldrich”
Pentacene (0.4 mg, produced by Sigma-Aldrich Co., Ltd.) represented by the following formula, and a mixed liquid of benzene and deuterated toluene (2 mL, benzene:deuterated toluene=1:9% by mass) as the solvent were mixed, thereby preparing a composition for NMR measurement.

[1] = 0.4 mg in 2 mL mixed liquid of benzene and polystyrene (5:5 by mass)
[2] = 0.4 mg in 2 mL mixed liquid of benzene and deuterated toluene (1:9 by mass)

Row | Compound | dissolution in the solvent [1] | dissolution in the solvent [2] | also measured
1 | c1ccc(-c2c3cc4ccccc4cc3c(-c3ccccc3)c3cc4ccccc4cc23)cc1 [6,13-diphenylpentacene] |  |  | dissolution in the solvent (0.4 mg in 2 mL mixed liquid of water and deuterated ethanol (1:9 by mass)): completely dissolved; dissolution in the solvent (0.5 mg in 1 mL mixed liquid of benzene and deuterated toluene (1:9 by mass)): completely dissolved; dissolution in the solvent (0.5 mg in 1 mL mixed liquid of benzene and polystyrene (5:5 by mass)): completely dissolved
2 | CC(C)[Si](C#Cc1c2cc3ccccc3cc2c(C#C[Si](C(C)C)(C(C)C)C(C)C)c2cc3ccccc3cc12)(C(C)C)C(C)C [6,13-bis[(triisopropylsilyl)ethynyl]pentacene] | completely dissolved |  | 
3 | c1ccc2cc3cc4cc5ccccc5cc4cc3cc2c1 [pentacene, Pentacene] |  | not almost dissolved | 
4 | c1ccc(-c2ccc(-c3c4cc5ccccc5cc4c(-c4ccc(-c5ccccc5)cc4)c4cc5ccccc5cc34)cc2)cc1 [6,13-dibiphenylpentacene] |  | completely dissolved | 
5 | CC[Si](C#Cc1c2cc3ccccc3cc2c(C#C[Si](CC)(CC)CC)c2cc3ccccc3cc12)(CC)CC [6,13-bis[(triethylsilyl)ethynyl]pentacene] | completely dissolved |  | 
